Data published in patent US20230226176A1, “NOVEL IMMUNE ADJUVANT AND VACCINE COMPOSITION INCLUDING THE SAME” (REPUBLIC OF KOREA (ANIMAL AND PLANT […]), priority 2020, published 2023).

Key:
porcine naive PBMCs = assay type: cell-based, pigs
SP antibodies in serum = tested on: SP antibodies in serum; set-up: species or system C57BL/6 mice; conditions: mouse, in vivo
FMDV = tested on: FMDV; set-up: species or system C57BL/6 mice; conditions: mouse, in vivo
porcine Mo-DCs [1] = test: Inhibition of phagocytosis by cytochalasin D, cytokine ELISA in Mo-DCs; conditions: 5 μg/mL CytD 45 min before 1 μg/mL antigen
porcine Mo-MΦs [2] = test: Inhibition of phagocytosis by cytochalasin D, cytokine ELISA in Mo-MΦs
porcine PBMCs = assay type: cell-based, pigs; conditions: 12 hours
porcine Mo-DCs [3] = assay type: cell-based, pigs
porcine Mo-MΦs [4] = assay type: cell-based, pigs

| Molecule | Cell proliferation, rank order (porcine naive PBMCs) | VN titers (FMDV) | antibody titers measured by SP-O ELISA compared to the control (SP antibodies in serum) | increase of neutralizing antibody (VN titers) (FMDV) | further results |
| --- | --- | --- | --- | --- | --- |
| Nc1nc2ncc(C=O)nc2c(=O)[nH]1 [6-Formylpterin (F), 6-formylpterin] | >antigen+T cell agonist (R) | high levels |  |  | antibody titers measured by SP-O ELISA (SP antibodies in serum): increased |
| C=C1[C@@H](C)[C@H]2[C@H](Cc3ccccc3)NC(=O)[C@]23[C@H](OC(C)=O)/C=C/[C@@](C)(O)C(=O)[C@@H](C)C/C=C/[C@H]3[C@@H]1O [CytD, cytochalasin D] |  |  |  |  | expression of cytokine when antigen is co-cultured after CytD treatment (porcine Mo-DCs [1]): significantly suppressed; expression of cytokine when antigen is co-cultured after CytD treatment (porcine Mo-MΦs [2]; 5 μg/mL CytD 45 min before 1 μg/mL antigen): significantly suppressed; IL-10 expression after CytD treatment (porcine Mo-MΦs [2]; not significantly different from pretreatment levels): slightly suppressed |
| C/C(=C\COP(=O)([O-])OP(=O)([O-])[O-])CO.[Li+].[Li+].[Li+] [HMP (H), (E)-1-hydroxy-2-methyl-2-butenyl 4-pyrophosphate lithium salt] | >antigen+iNKT cell agonist (G) |  | significantly higher | approximately 100 fold |  |
| C=C(C)CCOP(=O)([O-])OP(=O)([O-])[O-].[Li+].[Li+].[Li+] [IPP (I), Isopentenyl pyrophosphate trilithium salt] | >antigen alone | highest | significantly higher | approximately 100 fold |  |
| CCCCCCCCCCCCCCCCCCCCCCCCCC(=O)N[C@@H](CO[C@H]1O[C@H](CO)[C@H](O)[C@H](O)[C@H]1O)[C@H](O)[C@H](O)CCCCCCCCCCCCCC [α-Gal (G), α-galactosyl ceramide] | >antigen+MAIT cell agonist (F) | highest | significantly higher | approximately 100 fold | IL23A and IL23R expression (porcine PBMCs): specifically highly expressed |
| TNFα |  |  |  |  | IL-1β (porcine Mo-DCs [3]): 432.97; IL-6 (porcine Mo-DCs [3]): 201.33; IL-10 (porcine Mo-DCs [3]): 10.85; IL-12/23p40 (porcine Mo-DCs [3]): 135.67; TNFα (porcine Mo-DCs [3]): 74.00 |
| IL-4: rpIL-4 (R&D Systems, 20 ng/mL) for M2 MΦ polarization (protein, UniProt Q04745 25-133, looked up) Interleukin-4: HKCDITLQEIIKTLNILTARKNSCMELPVTDVFAAPENTTEKETFCRASTVLRHIYRHHTCMKSLLSGLDRNLSSMANMTCSVHEAKKSTLKDFLERLKTIMKEKYSKC |  |  |  |  | IL-1β (porcine Mo-MΦs [4]): 223.43; IL-10 (porcine Mo-MΦs [4]): 1.88; IL-12/23p40 (porcine Mo-MΦs [4]): 29.00 |
